Laboratory results reported in patent US20140080114A1, “METHODS, KITS AND COMPOSITIONS FOR INACTIVATION OF VIRAL AGENTS IN WHOLE BLOOD AND RED BLOOD CELL CONCENTRATES” (APHIOS CORPORATION, priority 2012, published 2014).

Tested on: bovine viral diarrhea virus (BVDV)
Test: Hypericin-luciferase inactivation of BVDV spiked into human red blood cell concentrate, titration of unwashed and washed samples (CPE, TCID50)
Format: cell-based
Conditions: for Unwashed Titer / Combined VRF (Titer of unwashed RBC control − Titer of washed sample) / Unwashed VRF (Titer of RBC control − Titer of sample) / Washed Titer / Washed VRF (Titer of RBC control − Titer of sample): Table 1 (Example 1), hypericin low=40, high=200 μg/mL, luciferase low=0.8, high=4.0 μM; for Unwashed Titer: RBCC, RT 2 hours in the dark, luciferin 0.08 mM, ATP 0.8 mM
Procedure: This dose range had not been tested in the previous experiments. Ten different combinations of DMEM (—Ca++, —Mg++), RBCC, virus, hypericin, luciferin, adenosine triphosphate (ATP) and luciferase were prepared to all contain equivalent titers of BVDV calculated to be 6.48 log 10TCID50/mL (logs) based on the titer of the original virus stock. The concentrations of hypericin tested were 40, 80 and 120 μg/mL. Luciferase was tested at 0.16, 0.32 and 0.8 μM. Luciferin and ATP were present at 80 and 800 μM respectively.
The compounds were mixed and incubated at RT for 2 hours in the dark followed by titration of unwashed and washed samples as previously described. Washing rows of wells with dilutions 1 and 2 was performed 2 days post-infection. Final CPEs were read 10 days post-infection.

Row | SMILES | Unwashed Titer [log10TCID50/mL] | Combined VRF (Titer of unwashed RBC control − Titer of washed sample) [log TCID50] | Unwashed VRF (Titer of RBC control − Titer of sample) [log TCID50] | Washed Titer [log10TCID50/mL] | Washed VRF (Titer of RBC control − Titer of sample) [log TCID50] | optimal dose of hypericin (with different doses of luciferase, for BVDV) [µg/mL]
1 | Cc1cc(O)c2c(=O)c3c(O)cc(O)c4c5c(O)cc(O)c6c(=O)c7c(O)cc(C)c8c1c2c(c34)c(c78)c65 [HL-LN, hypericin] | 3.48 | >4.01 | 2.87 | <2.34 | >1.64 | 
2 | Cc1cc(O)c2c(=O)c3c(O)cc(O)c4c5c(O)cc(O)c6c(=O)c7c(O)cc(C)c8c1c2c(c34)c(c78)c65 [HH-LN, hypericin] | 3.10 | 3.87 | 3.25 | 2.48 | 1.50 | 
3 | Cc1cc(O)c2c(=O)c3c(O)cc(O)c4c5c(O)cc(O)c6c(=O)c7c(O)cc(C)c8c1c2c(c34)c(c78)c65 [hypericin, reference compound] |  |  |  |  |  | 40
